{
  "source": "ChEMBL document CHEMBL4145686",
  "about": "“Discovery of a Potent and Selective Steroidal Glucocorticoid Receptor Antagonist (ORIC-101)” (J Med Chem, 2018)",
  "key": {"[1]": {"molecular_target": "T1, androgen receptor (AR) (Homo sapiens, UniProt P10275)", "T1 sequence (P10275 whole entry)": "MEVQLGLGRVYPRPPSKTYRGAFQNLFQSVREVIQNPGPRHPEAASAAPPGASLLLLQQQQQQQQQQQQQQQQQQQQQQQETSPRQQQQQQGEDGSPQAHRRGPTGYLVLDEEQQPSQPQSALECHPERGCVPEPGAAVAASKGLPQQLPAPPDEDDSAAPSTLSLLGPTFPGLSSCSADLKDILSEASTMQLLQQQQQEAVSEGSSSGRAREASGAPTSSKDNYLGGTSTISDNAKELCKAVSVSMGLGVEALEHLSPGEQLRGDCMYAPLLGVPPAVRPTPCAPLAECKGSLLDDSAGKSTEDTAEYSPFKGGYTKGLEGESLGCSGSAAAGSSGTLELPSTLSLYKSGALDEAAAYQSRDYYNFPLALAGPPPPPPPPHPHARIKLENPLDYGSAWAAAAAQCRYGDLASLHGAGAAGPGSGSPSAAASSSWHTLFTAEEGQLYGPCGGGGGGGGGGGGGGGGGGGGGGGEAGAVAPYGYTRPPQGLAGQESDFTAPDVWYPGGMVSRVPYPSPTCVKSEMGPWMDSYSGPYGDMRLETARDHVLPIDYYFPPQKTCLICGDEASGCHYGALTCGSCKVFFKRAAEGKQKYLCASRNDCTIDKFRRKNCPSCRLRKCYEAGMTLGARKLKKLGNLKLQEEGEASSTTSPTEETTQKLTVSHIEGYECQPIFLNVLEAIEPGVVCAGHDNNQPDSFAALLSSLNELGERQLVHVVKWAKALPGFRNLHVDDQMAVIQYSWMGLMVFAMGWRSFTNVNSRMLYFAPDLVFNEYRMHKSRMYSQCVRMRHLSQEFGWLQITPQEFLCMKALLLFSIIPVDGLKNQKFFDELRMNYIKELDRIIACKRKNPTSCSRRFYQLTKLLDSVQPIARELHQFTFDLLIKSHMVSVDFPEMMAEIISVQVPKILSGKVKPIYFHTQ", "assay": "Agonist activity at AR (unknown origin) expressed in human LNCaP cells incubated for 20 hrs by luciferase reporter gene assay relative to mifepristone", "type": "cell-based", "details": "human LNCaP cells expressing AR"}, "[2]": {"molecular_target": "T2, Glucocorticoid receptor (Homo sapiens, UniProt P04150)", "T2 sequence (P04150 whole entry)": "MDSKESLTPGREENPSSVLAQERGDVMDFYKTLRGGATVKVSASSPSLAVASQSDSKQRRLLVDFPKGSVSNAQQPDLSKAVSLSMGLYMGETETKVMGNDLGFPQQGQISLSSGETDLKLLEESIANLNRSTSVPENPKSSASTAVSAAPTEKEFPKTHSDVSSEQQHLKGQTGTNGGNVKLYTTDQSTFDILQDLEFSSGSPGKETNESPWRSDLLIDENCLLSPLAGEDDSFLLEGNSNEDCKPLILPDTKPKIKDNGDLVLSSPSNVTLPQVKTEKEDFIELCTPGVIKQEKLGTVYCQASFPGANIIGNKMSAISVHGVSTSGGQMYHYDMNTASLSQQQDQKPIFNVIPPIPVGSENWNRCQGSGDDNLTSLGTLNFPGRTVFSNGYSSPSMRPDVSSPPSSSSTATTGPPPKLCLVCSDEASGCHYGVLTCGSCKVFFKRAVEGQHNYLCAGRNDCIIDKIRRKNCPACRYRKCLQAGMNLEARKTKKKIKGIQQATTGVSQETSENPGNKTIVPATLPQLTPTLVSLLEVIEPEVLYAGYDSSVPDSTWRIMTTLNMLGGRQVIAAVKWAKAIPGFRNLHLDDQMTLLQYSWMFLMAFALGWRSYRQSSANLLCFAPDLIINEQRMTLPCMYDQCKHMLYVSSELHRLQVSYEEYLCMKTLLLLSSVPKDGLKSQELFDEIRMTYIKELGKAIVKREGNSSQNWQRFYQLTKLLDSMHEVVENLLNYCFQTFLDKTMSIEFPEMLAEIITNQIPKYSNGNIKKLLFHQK", "assay": "Antagonist activity at GR in human OVCAR5 assessed as reduction in dexamethasone-induced GILZ gene expression incubated for 24 hrs by RT-qPCR method"}, "[3]": {"molecular_target": "T2, Glucocorticoid receptor", "assay": "Agonist activity at human GR expressed in CHO-K1 cells incubated for 20 hrs by luciferase reporter gene assay", "type": "cell-based"}, "[4]": {"molecular_target": "T3, Progesterone receptor (Homo sapiens, UniProt P06401)", "T3 sequence (P06401 whole entry)": "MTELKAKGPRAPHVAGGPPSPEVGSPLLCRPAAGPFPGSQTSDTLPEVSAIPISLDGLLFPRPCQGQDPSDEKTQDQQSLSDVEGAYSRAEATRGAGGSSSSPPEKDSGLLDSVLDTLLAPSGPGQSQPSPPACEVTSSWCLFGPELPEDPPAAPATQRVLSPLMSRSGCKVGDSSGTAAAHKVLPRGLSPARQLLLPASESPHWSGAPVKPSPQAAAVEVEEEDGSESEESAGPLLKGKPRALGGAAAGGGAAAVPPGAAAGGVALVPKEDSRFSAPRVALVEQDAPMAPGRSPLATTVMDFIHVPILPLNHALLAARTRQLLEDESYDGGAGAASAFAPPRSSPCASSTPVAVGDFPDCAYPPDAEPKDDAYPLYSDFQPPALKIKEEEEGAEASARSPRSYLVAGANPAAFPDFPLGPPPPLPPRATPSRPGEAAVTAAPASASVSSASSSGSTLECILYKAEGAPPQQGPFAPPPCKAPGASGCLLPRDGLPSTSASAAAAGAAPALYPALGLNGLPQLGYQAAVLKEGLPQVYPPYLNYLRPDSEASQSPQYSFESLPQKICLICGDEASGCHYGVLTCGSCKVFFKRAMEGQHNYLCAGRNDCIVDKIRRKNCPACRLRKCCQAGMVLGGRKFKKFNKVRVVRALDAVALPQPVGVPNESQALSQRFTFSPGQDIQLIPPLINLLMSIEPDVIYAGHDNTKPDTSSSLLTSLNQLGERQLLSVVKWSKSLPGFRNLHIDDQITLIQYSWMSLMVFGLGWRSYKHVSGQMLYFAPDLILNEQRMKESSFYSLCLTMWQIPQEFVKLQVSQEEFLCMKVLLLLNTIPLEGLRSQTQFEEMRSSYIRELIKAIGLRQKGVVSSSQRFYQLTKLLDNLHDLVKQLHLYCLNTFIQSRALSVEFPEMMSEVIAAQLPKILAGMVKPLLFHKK", "assay": "Agonist activity at human PR expressed in CHO-K1 cells incubated for 20 hrs by luciferase reporter gene assay", "type": "cell-based", "details": "cho-k1, 20 h"}, "[5]": {"molecular_target": "T4, Androgen receptor (Homo sapiens, UniProt P10275)", "T4 sequence (P10275 whole entry)": "T1 sequence (P10275 whole entry)", "assay": "Agonist activity at AR in human MDA-MB-453 cells assessed as increase in CLDN8 gene expression at 111 to 333 nM incubated for 24 hrs by RT-qPCR method", "type": "cell-based", "details": "mda-mb-453, 24 h, 0.333 µM"}, "[6]": {"assay": "Clearance in rat at 0.5 mg/kg, iv", "type": "ADME, organism-based", "details": "in vivo"}, "[7]": {"tested_on": "OVCAR-5", "assay": "Potentiation of carboplatin-induced antitumor activity against human OVCAR5 cells xenografted in chronic cortisol treated nude mouse assessed as reduction in tumor volume at 75 mg/kg, po BID dosed via gavage co-treated with gencitabine at 60 mg/kg dosed every 3 days for 4 doses", "type": "functional, organism-based"}, "[8]": {"assay": "AUC in rat at 5 mg/kg, po", "type": "ADME, organism-based", "details": "in vivo"}},
  "note": "Active and inactive are the calls of the source. The rule behind the calls is not given here.",
  "data": [
    {"compound": "CC(C)N(C)c1ccc([C@H]2C[C@@]3(C)[C@@H](CC[C@@]3(O)C#CC(C)(C)C)[C@@H]3CCC4=CC(=O)CC[C@@H]4[C@H]32)cc1", "values": [
      {"measurement": "Emax at 20 h", "setting": "[1]", "value": 11, "unit": "%"},
      {"measurement": "IC50", "setting": "[2]", "value": 21.2, "unit": "nM"},
      {"measurement": "EC50", "setting": "[3]", "value": "> 2500", "unit": "nM"},
      {"measurement": "Activity", "setting": "[4]", "value": "Not Active"},
      {"measurement": "Activity", "setting": "[5]", "value": "Not Active"},
      {"measurement": "clearance", "setting": "[6]", "value": 31.7, "unit": "mL/min/kg"},
      {"measurement": "Activity", "setting": "[7]", "value": "Active"},
      {"measurement": "AUC", "setting": "[8]", "value": 635, "unit": "ng·h/mL"}
    ]}
  ]
}
